Reference: PubChem BioAssay AID1996
Values after ≈ are worked out from the molar mass of the structure shown.

Details: buffer; pH 7.4; 200.0 µM

Structure (SMILES)	solubility kinetic
CC(=O)Oc1cccc(Nc2ncnc3ccccc23)c1	> 41.9 µg/mL
COc1ccc(-c2nc(N)nc(C(F)(F)F)c2-c2cscn2)c(O)c1	< 0.2 µg/mL
Cc1ccc(-c2csc(NC(=O)c3ccc(F)cc3)c2C(=O)O)cc1	> 53.3 µg/mL
COc1cc(OC)cc(C(=O)NCCCCc2ccccc2)c1	1.3 µg/mL (≈ 4.15 µM)
C(=C\c1ccc2ccccc2n1)/c1ccccc1	0.5 µg/mL (≈ 2.16 µM)
O=[N+]([O-])c1ccc(Cc2ccccn2)cc1	> 32.1 µg/mL
O=C(Nc1ccc(-c2n[nH]c(=S)o2)cc1)c1ccccc1	> 44.6 µg/mL
O=C(NCc1ccccc1)c1csc(-c2cccnc2)n1	> 44.3 µg/mL
CC(C)OCc1c(C(=O)Nc2nccs2)oc2ccccc12	2.6 µg/mL (≈ 8.22 µM)
CC(O)c1cccc(N=Cc2ccc3ccccc3c2O)c1 (stereo not given)	7.5 µg/mL (≈ 25.7 µM)
COC(=O)CCCSc1nccn1-c1ccccc1	> 41.5 µg/mL
Cl.OC(c1ccccc1)C(CN1CCOCC1)c1ccccc1 (stereo not given)	> 50.1 µg/mL
CCOC(=O)CCNCc1ccc(F)cc1.Cl	> 39.3 µg/mL
COc1ccc(CN2CSC(=S)N(Cc3ccc(OC)cc3)C2)cc1	0.8 µg/mL (≈ 2.14 µM)
Cc1ccc(/C=[N+](\[O-])c2ccccc2C)o1	22.2 µg/mL (≈ 103 µM)
CCn1ccnc1CN1CCCC(C(=O)c2cc(C)c(OC)c(C)c2)C1 (stereo not given)	47.6 µg/mL (≈ 134 µM)
O=C1c2ccccc2C(O)N1c1ccccc1 (stereo not given)	> 33.8 µg/mL
COc1cccc(C(=O)Nc2cc(C)nn2-c2ccccc2)c1OC	> 50.6 µg/mL
Fc1ccc(CNC(=S)Nc2ccccc2F)cc1	> 41.7 µg/mL

Structure (SMILES)	solubility kinetic
CC[N+](CC)(CC#CCO)CC#Cc1ccccc1.[Br-]	44.2 µg/mL
O=C(NCCNc1ccccc1[N+](=O)[O-])c1cc(F)c(F)cc1Cl	1.2 µg/mL (≈ 3.37 µM)
CCOC(=O)Cc1csc(NC(=O)c2ccc(F)cc2)n1	> 46.2 µg/mL
Cn1cc(CCC(=O)NCCCc2ccccc2)c2ccccc21	25.8 µg/mL (≈ 80.5 µM)
COCCN(CC(=O)Nc1cccc(C)c1C)C(=O)c1oc2ccccc2c1C	7.4 µg/mL (≈ 18.8 µM)
Nc1nc(Cl)cc(=O)n1Cc1ccc(Cl)cc1	28.1 µg/mL (≈ 104 µM)
O=C(CCNC(=O)c1ccc([N+](=O)[O-])cc1)NCCc1ccccc1	13.8 µg/mL (≈ 40.4 µM)
COCCCN(CC(=O)Nc1ccc(F)cc1)S(=O)(=O)c1cccs1	> 58 µg/mL
CCOc1ccc(-c2noc(-c3cccnc3)n2)cc1OCC	2.2 µg/mL (≈ 7.07 µM)
N#Cc1c(N)n(-c2cccc(O)c2)c2nc3ccccc3nc12	6.4 µg/mL (≈ 21.2 µM)
Cc1cc(NS(=O)(=O)c2ccc(NC(=O)Cc3ccc([N+](=O)[O-])cc3)cc2)nc(C)n1	> 66.2 µg/mL
O=C(Nc1ccc(F)cc1F)c1cc2ccccc2oc1=O	< 0.6 µg/mL
COc1c(Cl)ccc(Cl)c1C(=O)NCc1ccco1	> 45 µg/mL
Cl.N=C(c1cccc([N+](=O)[O-])c1)N1CCCCCC1	> 42.6 µg/mL
CC1(C)c2ccccc2-n2c1cc1oc(=O)cc(O)c1c2=O	35.6 µg/mL (≈ 121 µM)
NC(=O)/C(=C\c1cccnc1)NC(=O)c1ccccc1	> 40.1 µg/mL
CCCCNC(=S)Nc1ccc(SC(F)F)cc1	> 43.6 µg/mL
CCCCC(=O)Nc1ccc(NC(=O)c2ccco2)cn1	36.9 µg/mL (≈ 128 µM)

The next lines start with the values.

solubility kinetic	Structure (SMILES)
49.5 µg/mL (≈ 143 µM)	O=C(CN1C(=O)C2CCCCC2C1=O)OCC(=O)c1ccc(F)cc1 (stereo not given)
42.6 µg/mL (≈ 134 µM)	CC(=O)Nc1ccc(C)c(NC(=S)Nc2ccc(F)cc2)c1
4.7 µg/mL (≈ 16.7 µM)	Cc1ccc(NC(=O)C2Cc3ccccc3C(=O)O2)cc1 (stereo not given)
> 54.6 µg/mL	CC1CCCCC12NC(=O)N(CC(=O)NCc1ccccc1Cl)C2=O (stereo not given)
34.2 µg/mL	Cl.OC1(C#CCN2CCCC2)CCCCC1
5.5 µg/mL (≈ 17.1 µM)	COc1cccc(CNC(=S)Nc2ccc(Cl)cc2C)c1
> 46.5 µg/mL	CC(CN1C(C)CCCC1C)OC(=O)c1ccccc1Cl (stereo not given)
> 45.8 µg/mL	Cc1cccc(C(=O)OCC(=O)N2CC(C)OC(C)C2)c1C (stereo not given)
> 33.3 µg/mL	CN(C)C(=S)NC1CCS(=O)(=O)C1 (stereo not given)
> 46.6 µg/mL	Cc1nnc(SCC(=O)NC2CCCCCC2)n1C(C)C
> 54.4 µg/mL	CCCC(CCC)C(=O)OC1C[C@H]2CC[C@@H](C1)[N+]2(C)C.[Br-] (stereo not given in full)
> 36.5 µg/mL	CN(C)/C=C/C(=O)c1cccc(C(F)(F)F)c1
43.2 µg/mL (≈ 129 µM)	COC(=O)c1ccccc1S(=O)(=O)N1CCn2cccc2C1C (stereo not given)
> 32.3 µg/mL	O=C(Nc1ccccc1)c1cccc(=O)o1
> 43 µg/mL	COC(=O)c1cc(S(=O)(=O)N2CCCC(C)C2)c[nH]1 (stereo not given)
32.3 µg/mL (≈ 117 µM)	COC(=O)CCC(=O)Nc1cc(Cl)cc(Cl)c1
> 57.9 µg/mL	O=C(NCC(c1cccs1)N1CCOCC1)c1cnc(Cl)c(Cl)c1 (stereo not given)
11.4 µg/mL (≈ 46.1 µM)	CCOc1ccc(C2(C)CC(=O)N(C)C2=O)cc1 (stereo not given)
43.7 µg/mL (≈ 149 µM)	NC(=O)C1CCN(C(=O)c2cc3c(s2)CCCC3)CC1
5.7 µg/mL (≈ 24.2 µM)	S=C(Nc1ccccn1)NC1CCCCC1
> 49 µg/mL	O=C(CSc1nc2ccccc2o1)NC1CCS(=O)(=O)C1 (stereo not given)
12.6 µg/mL (≈ 37.1 µM)	COc1ccc(NC(=O)Cn2cnc3ccccc3c2=O)cc1OC
> 41.3 µg/mL	O=C(O)Cc1ccc(S(=O)(=O)N2CCCC2)s1
